According to ChEMBL document CHEMBL1139216, “Discovery and refinement of a new structural class of potent peptide deformylase inhibitors” (J Med Chem, 2007):
Values after ≈ are worked out from the molar mass of the structure shown.

Legend:
[1] = target: T1, Peptide deformylase 1A, chloroplastic/mitochondrial (Arabidopsis thaliana, UniProt Q9FV53)
T1 sequence (Q9FV53 whole entry): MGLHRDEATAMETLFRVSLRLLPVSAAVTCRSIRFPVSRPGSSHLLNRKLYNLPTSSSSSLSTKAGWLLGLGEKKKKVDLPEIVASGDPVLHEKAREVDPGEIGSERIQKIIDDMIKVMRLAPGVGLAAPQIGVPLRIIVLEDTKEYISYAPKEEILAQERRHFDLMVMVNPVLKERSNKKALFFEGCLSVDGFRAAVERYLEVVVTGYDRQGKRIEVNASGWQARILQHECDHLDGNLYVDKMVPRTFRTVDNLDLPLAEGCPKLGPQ

Peptide deformylase = target: T2, Peptide deformylase (Escherichia coli, UniProt Q9JN24)
T2 sequence (Q9JN24 whole entry): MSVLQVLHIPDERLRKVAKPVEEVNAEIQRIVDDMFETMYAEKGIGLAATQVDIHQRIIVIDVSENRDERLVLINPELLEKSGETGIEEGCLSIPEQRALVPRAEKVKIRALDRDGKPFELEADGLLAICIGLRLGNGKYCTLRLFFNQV

Bacillus subtilis [2] = assay: Antibacterial activity against Bacillus subtilis MO3482; assay type: functional
Escherichia coli [3] = assay: Antibacterial activity against Escherichia coli JM101Tr; assay type: functional
Escherichia coli [4] = assay: Antibacterial activity against Escherichia coli CAG1284; assay type: functional
Bacillus subtilis [5] = assay: Antibacterial activity against Bacillus subtilis 168; assay type: functional
Bacillus subtilis [6] = assay: Antibacterial activity against Bacillus subtilis D101; assay type: functional
Bacillus subtilis [7] = assay: Antibacterial activity against Bacillus subtilis Y101; assay type: functional
[8] = target: T3, Peptide deformylase, mitochondrial (Homo sapiens, UniProt Q9HBH1)
T3 sequence (Q9HBH1 whole entry): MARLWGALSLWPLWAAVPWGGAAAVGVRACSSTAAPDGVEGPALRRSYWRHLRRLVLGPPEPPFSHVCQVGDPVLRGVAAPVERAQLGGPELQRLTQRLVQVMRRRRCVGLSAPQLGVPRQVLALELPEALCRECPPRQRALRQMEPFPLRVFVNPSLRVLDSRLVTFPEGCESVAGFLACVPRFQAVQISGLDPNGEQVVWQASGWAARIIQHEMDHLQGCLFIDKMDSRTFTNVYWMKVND

Bacillus subtilis [9] = assay: Antibacterial activity against Bacillus subtilis; assay type: functional
Escherichia coli [10] = assay: Antibacterial activity against Escherichia coli K37; assay type: functional

Structure (SMILES)	IC50 [1] [µM]	IC50 (Peptide deformylase) [µM]	MIC (Escherichia coli [3]) [µg/mL]	further results
CC(C)(C)OC(=O)NC(CNO)Cc1ccccc1 (stereo not given)	> 1000	52		
O=C(CO)Cc1c[nH]c2ccc(Br)cc12	790	560	> 300	MIC (Bacillus subtilis [2]): > 300 µg/mL; MIC (Escherichia coli [4]): > 300 µg/mL; MIC (Bacillus subtilis [5]): > 300 µg/mL; MIC (Bacillus subtilis [6]): > 300 µg/mL; MIC (Bacillus subtilis [7]): > 300 µg/mL
CC(=O)SCC(=O)Cc1c[nH]c2ccccc12	> 1000	200		
Cc1[nH]c2ccc(Br)cc2c1CC(=O)NO	450		> 300	IC50 [8]: 450 µM; MIC (Bacillus subtilis [9]): 220 µg/mL (≈ 777 µM)
COc1ccc2[nH]cc(CC(=O)NO)c2c1	> 1000		> 300	MIC (Bacillus subtilis [9]): 155 µg/mL (≈ 704 µM)
Cc1c(CN(O)C=O)c2cc(Br)ccc2n1S(=O)(=O)c1ccccc1	35	0.03	65 (≈ 154 µM)	IC50 [8]: 200 µM; MIC (Bacillus subtilis [9]): 35 µg/mL (≈ 82.7 µM)
O=C(O)Cc1cn(C(=O)OCc2ccccc2)c2ccccc12	> 1000	300		
CC(C)(C)OC(=O)NC(Cc1ccccc1)CN(O)C=O (stereo not given)		0.05	> 300	MIC (Bacillus subtilis [2]): > 300 µg/mL; MIC (Escherichia coli [4]): 120 µg/mL (≈ 408 µM); MIC (Bacillus subtilis [5]): > 300 µg/mL; MIC (Bacillus subtilis [6]): > 300 µg/mL; MIC (Bacillus subtilis [7]): 9 µg/mL (≈ 30.6 µM)
CC(=O)SCC(=O)Cc1cn(C(=O)OCc2ccccc2)c2ccccc12	500	350		
O=C(CS)Cc1c[nH]c2ccc(Br)cc12	200	80		
Cc1c(CNO)c2cc(Br)ccc2n1S(=O)(=O)c1ccccc1	500	6		
CC(=O)SCC(=O)Cc1c[nH]c2ccc(Br)cc12	170	120		
Cc1[nH]c2ccc(Br)cc2c1CNO	> 250	50		
CCCCC[C@H](CC(=O)NO)C(=O)N[C@H](C(=O)N1CCC[C@H]1CO)C(C)C [ACTINONIN]	0.027	0.01	34 (≈ 88.2 µM)	MIC (Bacillus subtilis [2]): 1 µg/mL (≈ 2.59 µM); MIC (Bacillus subtilis [9]): 1.3 µg/mL (≈ 3.37 µM); MIC (Escherichia coli [10]): 32 µg/mL (≈ 83 µM); MIC (Escherichia coli [4]): 0.125 µg/mL (≈ 0.324 µM); MIC (Bacillus subtilis [5]): 1 µg/mL (≈ 2.59 µM); MIC (Bacillus subtilis [6]): 1 µg/mL (≈ 2.59 µM); MIC (Bacillus subtilis [7]): 0.125 µg/mL (≈ 0.324 µM)
O=C(O)Cc1c[nH]c2ccccc12 [INDOLE-3-ACETIC ACID]	> 1000	> 1000		
